Like-named read-outs stand apart in the source and are kept apart here. One block for each molecule: values may come before it. Ends that are not written are not given here.
Experiments:
[1] = test system: Na+ dependent phosphate co-transport in primary human renal proximal tubule epithelial cells (RPTEC); experiment: 33PO4 uptake scintillation proximity assay (SPA) in RPTEC; type: cell-based
Method: (§1) Measurement of ^33PO4 uptake and ^14C-α-methyl D-glucose uptake. A novel technique, scintillation proximity assay (SPA), was used to measure ^33PO4 uptake in-vitro. Human renal proximal-tubule primary cells (RPTEC) were purchased from Clonetics-Biowhittaker (Walkersville, Md.) (cat. no. CC2553) and were cultured and subcultured using the manufacturers recommended protocols, methods, buffers and media (cat. nos. CC3190, CC5034). Also a human renal cell-line (Hu-CL8) was cultured as previously described (Rowe et al. Candidate 56 and 58 kDa protein(s) responsible for mediating the renal defects in oncogenic hypophosphatemic osteomalacia. Bone 18(2):159-169, 1996). For ^33PO4-uptake measurement cells were grown in REBM media supplemented with 5% fetal calf serum (REBM-FCS) to 80% confluence (Clonetics-Biowhitaker, Walkersville, Md.: cat. nos. CC2553, CC3190 and CC5034) and seeded into 96 well (3000 cells/well) cytostar-T scintillating-microplates (Amersham-Pharmacia Biotech, Piscataway, N.J.: cat. no. RPNQ 0162). Cells were then cultured in 200 μL of REBM-FCS media for 24 h. Media was then replaced with serum free media (REBM) and the cells incubated for a further 3-4 h with Hu-MEPE, PTH (1-34) or media control respectively in REBM media. The concentrations of PTH (1-34) and Hu-MEPE were […] and each experimental dose was repeated eight times for statistical analysis. Following incubation media was removed and replaced with either phosphate uptake buffer (PUB) consisting of 150 mM NaCl/1 mM Cacl2/1.8 mM MgSO4/10 mM HEPE pH 7.0/0.1 mM phosphate buffer pH 7.0 and 3 uCi mL^−1 33P as orthophosphoric acid (18 MBq/mL or 5775.7 Gbq/mg stock solution Perkin Elmer, Wellesley, Mass.: cat. no. NEZ080). In order to determine the Na-dependent phosphate co-transporter activity a separate set of control cells were incubated with the same buffer but with choline chloride (150 mM) substituted for NaCl (CHUB buffer). After 10 min at 37° C. the reaction was terminated by removing the PUB and CHUB buffers and replacing with STOP buffer (CHUB buffer without radioisotope). The cytostar scintillation plates were then directly assayed for counts (CPM) using a Hewlett-Packard (Palo Alto, Calif.) Multiplate Top-counter calibrated for ^33P SPA assay. Due to the unique design of the 96 well cytostar-plate radioactive decay in solution is not detected by the counter. In contrast, radioisotope attached to or taken into the cells initiates release of plastic-scintillant photons that are detected by the top-counter photo-multiplier tube. Thus, no washes are required and direct CPM can be counted in living cells. Following CPM determination the buffers were removed from the living cells and fresh media supplemented with cell-titre-96 (Promega-Biotech, Madison, Wis.: cat. no. G5421) cell-number detection media. Cells were then further incubated at 37° C. for 4 h. Conversion of a tetrazolium salt to a colored formazan product by living cells was then measured at 490 nm using a 96 well multi-well spectrophotometer with KC-4 software (absorbance at 490 nm is directly proportional to the number of living cells). Na-dependent ^33P uptake was then calculated by subtracting background counts and the choline chloride non Na-dependent ^33P uptake and results expressed as ^33PO4 femtomoles/10^4-cells/6 min. […]

[2] = test system: Na+ dependent phosphate co-transport in human renal proximal tubule cell-line (Hu-CL8); experiment: 33PO4 uptake scintillation proximity assay (SPA) in Hu-CL8; type: cell-based; details: Hu-CL8
Method: as §1, with “After 10 min at 37° C. the reaction was terminated by removing the PUB and CHUB buffers and replacing with STOP buffer (CHUB buffer without radioisotope). The cytostar scintillation plates were then directly assayed for counts (CPM) using a Hewlett-Packard (Palo Alto, Calif.) Multiplate Top-counter calibrated for ^33P SPA assay.” left out, “Following CPM determination the buffers were removed from the living cells and fresh media supplemented with cell-titre-96 (Promega-Biotech, Madison, Wis.: cat. no. G5421) cell-number detection media. Cells were then further incubated at 37° C. for 4 h.” left out

[3] = test system: Male ICR-Swiss mice; experiment: Intraperitoneal administration of Hu-MEPE and PTH (1-34) into mice, serum and urine assays; type: in vivo
Method: Intraperitoneal administration of Hu-MEPE and PTH (1-34) into mice. Male ICR-Swiss mice were used as recipients for intraperitoneal administration (100 μl) of 0.1% phosphate-buffered saline/0.1% bovine serum albumin (vehicle) and experimental conditions (Hu-MEPE and PTH 1-34) dissolved in 100 μL of vehicle. Two separate (repeat) experiments were conducted consisting of four groups with 6 and 7 animals per group. The control group was administered with 100 μL of vehicle (Group-1). Group-2 consisted of animals administered with 0.8 μg/injection of parathyroid hormone (PTH 1-34). Group 3 were injected with 0.4 μg/injection of Hu-MEPE and Group-4 with 4 μg/injection of Hu-MEPE. On day one, three bolus injections were given at 0, 3 h, and 6 h. Serum samples were then collected via retro-orbital bleed one hour after the 6 h bolus administration. The next day or 30 hours after the first bolus a fourth bolus (same amount) was given and after 1 h the animals were sacrificed and serum prepared after cardiac exsanguination. The total amounts of PTH and MEPE administered over the 30 h were 80 μg/kg/30 h PTH 1-34, 40 μg/kg/30 h Hu-MEPE (MEPE-40) and 400 μg/kg/30 h Hu-MEPE (MEPE-400). Each group was placed in a separate metabolic cage and urine was collected for the 6-hour period. After the first 6-hour urine collection mice were replaced in thoroughly cleaned metabolic cages for the remaining 24 hours. The second 24-hour urine was collected immediately after the animals were sacrificed. The urine volumes for the second and first collections were measured. Collecting urine samples from large numbers of small mice over the time frame of the experiment was not feasible. Therefore, urine samples from each group (n=7) were pooled and volumes measured via a specially designed collecting duct in the metabolic cage. To ensure reproducibility the experiment was repeated twice (the same changes occurred). To calculate the fractional excretion of phosphate (FEP) the following equation was used: 100−(100×(1−(A/B))) where A=(urine phosphorus in mg/dL)×(serum creatinine in mg/dL) and B=(urine creatinine in mg/dL)×(serum phosphorus in mg/dL). To calculate renal phosphorus clearance (RPC) in mL/minute following computation was used: (urine phosphorus in mg/dL)×(urinary volume in mL)/((serum phosphorus in mg/dL)×(time of collection in minutes)). The phosphate excretion index (PEI) was calculated using the same method described by Shimada et al. (Cloning and characterization of FGF23 as a causative factor of tumor-induced osteomalacia, Proc Natl Acad Sci USA 98:6500-6505, 2001) using the following formula: ((urinary concentration of phosphorus in mg/dL)/(serum concentration of phosphorus in mg/dL))/(total urinary creatinine in mg).
Serum and urine assays. Serum and urine assays for phosphate, calcium, chloride, potassium, creatinine, glucose and alkaline phosphatase were accomplished using 96 well format KC4-spectrophotometer multiplate kinetic/end-point analyses using routine methods and diagnostic-kits Sigma-Diagnostics). Serum 1,25-dihydroxy vitamin-D3 levels were estimated using the method of Reinhardt, et al. (A microassay for 1,25-dihydroxyvitamin D not requiring high performance liquid chromatography: application to clinical studies, J Clin Endocrinol Metab 58:91-98, 1984). Analysis of data for fractional excretion of phosphate (FEP) was carried out following the same method described previously by Shimada et al. (Mutant FGF-23 responsible for autosomal dominant hypophosphatemic rickets is resistant to proteolytic cleavage and causes hypophosphatemia in vivo, Endocrinology 143:3179-82, 2002) for FGF23 bolus administration studies and by Nesbitt et al. (Crosstransplantation of kidneys in normal and Hyp mice: Evidence that the Hyp mouse phenotype is unrelated to an intrinsic renal defect, J Clin Invest 89:1453-59, 1992) for renal cross-transplantation experiments in Hyp mice.
Statistical methods. […]

[4] = target: rabbit polyclonal antibodies raised against ASARM-peptide (SEQ ID NO. 5); experiment: competitive chemiluminescent ELISA: anti-ASARM polyclonal on protein-G plates, 0.5 ng/mL biotinylated ASARM-peptide as competitor
[5] = target: rabbit polyclonal antibodies raised against ASARM-peptide (SEQ ID NO. 5); experiment: competitive chemiluminescent ELISA: anti-ASARM polyclonal on protein-G plates, 0.5 ng/mL biotinylated ASARM-peptide as competitor, one site binding hyperbola of % quenching

Molecule: PTH (1-34): parathyroid hormone (PTH 1-34), used as a positive control (SVSEIQLMHNLGKHLNSMERVEWLRKKLQDVHNF; Parathyroid hormone; UniProt P01270 32-65, looked up, fragment) [reference compound]
- inhibition of Na+ dependent phosphate co-transport [1]: Dose dependent inhibition
- inhibition of Na+ dependent phosphate co-transport ([1]; listed as PTH): dose-dependent inhibition
- inhibition of Na+ dependent phosphate co-transport [2]: Dose dependent inhibition
- fractional excretion of phosphate (FEP) ([3]; 7 h, PTH 80 ug/kg/30 h, vehicle 7.8%): 27.4%
- urine phosphate ([3]; 7 h, PTH 80 ug/kg/30 h i.p., vehicle 31.8): 61.6 mg/dL
- fractional excretion of phosphate (FEP) ([3]; 31 h, PTH 80 ug/kg/30 h, vehicle 28.7%): 53.3%
- serum alkaline phosphatase ([3]; 31 h, PTH 80 ug/kg/30 h, vehicle 65.06): 46.3 U/L
- serum 1,25-dihydroxy vitamin-D3 ([3]; 31 h, PTH 1-34 80 ug/kg/30 h, pooled, vehicle 25.2): 61.2 pg/mL
- serum phosphate ([3]; 31 hours, PTH 80 ug/kg/30 h i.p., vehicle 11.94): 8.32 mg/dL
- urine phosphate ([3]; 31 h second urine, PTH 80 ug/kg/30 h, vehicle 175.9): 238.3 mg/dL
- serum phosphate vs vehicle ([3]; after 7 hours, i.p., PTH and MEPE animals): no significant differences
- serum calcium vs vehicle ([3]; after 7 hours, PTH 80 ug/kg/30 h, low Hu-MEPE dose): significantly elevated
- urine calcium vs Hu-MEPE and vehicle ([3]; after 31 hours, PTH): significantly hypocalciuric

- Qmax (quench maximum) [4]: 98.7%
- Kd [5]: 7.5 ng/mL
Molecule: RDDSSESSDSGSSSESDGD (not fully specified)

— patent US20070099822A1, “Regulation of tissue mineralization and phosphate metabolism by asarm peptides” (priority 2003, published 2007)
